The record followed here is patent publication US9309248B2, “Azaindolines” (Hoffmann-La Roche Inc., priority 2012, dated 2016).

For one test, the target named is T1, BIR2 domain of XIAP (Homo sapiens, UniProt P98170, C202A/C213G).
T1 construct: 6× Histidine-tagged BIR2 domain, corresponding to amino acids 124-240 of XIAP
Briefly: TR-FRET assay for BIR2 (inhibition of binding of XIAP BIR2 domain to SMAC-derived Peptide A). As to conditions: 6x Histidine-tagged BIR2 domain (amino acids 124-240 of XIAP) 10 nM, Peptide A 20 nM. The procedure, abridged: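 Inhibition of binding of the XIAP BIR2 domain (C202A/C213G) to biotinylated SMAC-derived Peptide A was measured. TR-FRET signal was read after 1 h at room temperature.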

A further test addresses T2, BIR3 domain of XIAP (Homo sapiens, UniProt P98170).
T2 construct: BIR3 domain, corresponding to amino acids 241-356 of XIAP
Put plainly: TR-FRET assay for BIR3 (inhibition of binding of XIAP BIR3 domain to SMAC-derived Peptide A). As to conditions: 6x Histidine-tagged BIR3 domain (amino acids 241-356 of XIAP) 10 nM, Peptide A 20 nM. The gist of the method:
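His6-tagged XIAP BIR3 (aa 241-356, 10 nM) was mixed with 20 nM biotinylated SMAC-derived peptide in 50 mM Tris-Cl pH 7.5, 100 mM NaCl, 1 mM DTT, 0.1 mg/mL BSA and incubated 45 min at 37 °C. Eu-streptavidin (1.5 nM) and APC anti-His (15 nM) were added, with TR-FRET read 1 h later at RT. IC50 came from % inhibition over 10 serial concentrations.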

T1 sequence (P98170 with tags, fused parts or gaps C202A/C213G): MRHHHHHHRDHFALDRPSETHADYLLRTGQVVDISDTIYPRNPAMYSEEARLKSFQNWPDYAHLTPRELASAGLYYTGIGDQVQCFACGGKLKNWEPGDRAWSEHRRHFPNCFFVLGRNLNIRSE
T2 sequence (P98170 with tags, fused parts or gaps): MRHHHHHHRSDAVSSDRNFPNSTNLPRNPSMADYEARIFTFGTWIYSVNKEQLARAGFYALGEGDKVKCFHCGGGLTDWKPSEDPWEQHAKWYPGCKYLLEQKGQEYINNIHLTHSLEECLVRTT

In general, IC50 refers to the concentration needed to halve the response being measured. Low values mean higher potency, high ones lower potency. `CN[C@@H](C)C(=O)N[C@H](C(=O)N1c2ncccc2C[C@H]1C(=O)Nc1c(F)cccc1F)C1CCOCC1` [Example 94, (S)-1-[(S)-2-((S)-2-Methylamino-propionylamino)-2-(tetrahydro-pyran-4-yl)-acetyl]-2,3-dihydro-1H-pyrrolo[2,3-b]pyridine-2-carboxylic acid (2,6-difluoro-phenyl)-amide]: the half-inhibitory concentration (IC50) was 0.00979 µM at BIR2 domain of XIAP and > 54.8 µM at BIR3 domain of XIAP.

On to `CN[C@@H](C)C(=O)N[C@H](C(=O)N1c2ncccc2C[C@@H]1C(=O)Nc1c(F)cccc1F)C1CCOCC1` [Example 95, (R)-1-[(S)-2-((S)-2-Methylamino-propionylamino)-2-(tetrahydro-pyran-4-yl)-acetyl]-2,3-dihydro-1H-pyrrolo[2,3-b]pyridine-2-carboxylic acid (2,6-difluoro-phenyl)-amide], for which the IC50 at BIR2 domain of XIAP is 0.607 µM; on BIR3 domain of XIAP, > 54.8 µM.

Regarding `CN[C@@H](C)C(=O)N[C@@H](CCS(C)(=O)=O)C(=O)N1c2ncccc2C[C@H]1C(=O)Nc1ccccc1` [Example 96, 1-[(S)-4-Methanesulfonyl-2-((S)-2-methylamino-propionylamino)-butyryl]-2,3-dihydro-1H-pyrrolo[2,3-b]pyridine-2-carboxylic acid phenylamide], the IC50 at BIR2 domain of XIAP is 0.108 µM; at BIR3 domain of XIAP, > 54.8 µM.

Consider `CN[C@@H](C)C(=O)N[C@@H](CCS(C)(=O)=O)C(=O)N1c2ncccc2C[C@@H]1C(=O)Nc1ccccc1` [Example 97, 1-[(S)-4-Methanesulfonyl-2-((S)-2-methylamino-propionylamino)-butyryl]-2,3-dihydro-1H-pyrrolo[2,3-b]pyridine-2-carboxylic acid phenylamide], for which the figures for the half-maximal inhibitory concentration (IC50) on BIR2 domain of XIAP and at BIR3 domain of XIAP were 3.06 µM and > 54.8 µM, respectively.

As for `CN[C@@H](C)C(=O)N[C@H](C(=O)N1c2ncccc2C(C)C1C(=O)Nc1c(F)cccc1F)C(C)C` (stereo partly drawn) [Example 98, 3-Methyl-1-[(S)-3-methyl-2-((S)-2-methylamino-propionylamino)-butyryl]-2,3-dihydro-1H-pyrrolo[2,3-b]pyridine-2-carboxylic acid (2,6-difluoro-phenyl)-amide], the half-inhibitory concentration (IC50) at BIR2 domain of XIAP is 0.017 µM; at BIR3 domain of XIAP it was > 54.8 µM.

As for `CN[C@@H](C)C(=O)N[C@H](C(=O)N1c2ncccc2C[C@H]1C(=O)Nc1c(C)cccc1F)C1CCOCC1` [Example 99, (S)-1-[(S)-2-((S)-2-Methylamino-propionylamino)-2-(tetrahydro-pyran-4-yl)-acetyl]-2,3-dihydro-1H-pyrrolo[2,3-b]pyridine-2-carboxylic acid (2-fluoro-6-methyl-phenyl)-amide], the IC50 is 0.0116 µM at BIR2 domain of XIAP and > 54.8 µM at BIR3 domain of XIAP.
